The values that follow come from patent US11608342B2, “PDE9 inhibitors with imidazo triazinone backbone and imidazo pyrazinone backbone for treatment of peripheral diseases” (H. LUNDBECK A/S, priority 2015, dated 2023).

The target of data set [1] is PDE9 (Homo sapiens (Human), UniProt O76083). Kind of data set: PDE9 inhibition assay. The data set is classed as biochemical. The following applies: 3H-cAMP substrate, SPA. The procedure: Reactions are initiated by addition of the cyclic nucleotide substrate, and reactions are allowed to proceed for one hr at room temperature before being terminated through mixing with 15 uL 8 mg/mL yttrium silicate SPA beads (Amersham). […] Following a 1 hour incubation the reactions were terminated by addition of 15 uL 8 mg/mL yttrium silicate SPA beads (Amersham). […] IC50 values were calculated by nonlinear regression using XLfit (IDBS).

The nature of data set [2]: Blood Brain Barrier penetration (brain-to-plasma distribution). The data set is classed as in vivo, Male CD mice. The following applies: mouse, 10 mg/kg subcutaneous. The method, then: Male CD mice (20-24 g) were housed pair-wise with free access to food and water for an acclimatization period of 3-7 days before initiation of experiments. Prior to dosing the animals were fasted overnight. During testing, mice were kept in individual cages. The brain-to-plasma distribution was assessed 30 minutes and 2 hours after subcutaneous administration of the test compound at a dose of 10 mg/kg (n=3 at each time point). The dose volume was 10 ml/kg using appropriate vehicle to solubilize each test compound. At the time of sampling, animals were anesthetized with isoflurane and a systemic blood sample collected by cardiac puncture into vacutainers containing sodium heparin as anti-coagulant. The blood was centrifuged at 3500 rpm for 10 minutes at 4° C. to obtain plasma. Following decapitation, brains were dissected out and transferred to pre-weighed vessels followed by tissue weights determination. Plasma and brains were stored at −80° C. until quantitative bioanalysis by LC-MS/MS. Results are expressed as ng/ml for plasma and ng/g for brain samples.

Sequence of PDE9 (O76083 whole entry): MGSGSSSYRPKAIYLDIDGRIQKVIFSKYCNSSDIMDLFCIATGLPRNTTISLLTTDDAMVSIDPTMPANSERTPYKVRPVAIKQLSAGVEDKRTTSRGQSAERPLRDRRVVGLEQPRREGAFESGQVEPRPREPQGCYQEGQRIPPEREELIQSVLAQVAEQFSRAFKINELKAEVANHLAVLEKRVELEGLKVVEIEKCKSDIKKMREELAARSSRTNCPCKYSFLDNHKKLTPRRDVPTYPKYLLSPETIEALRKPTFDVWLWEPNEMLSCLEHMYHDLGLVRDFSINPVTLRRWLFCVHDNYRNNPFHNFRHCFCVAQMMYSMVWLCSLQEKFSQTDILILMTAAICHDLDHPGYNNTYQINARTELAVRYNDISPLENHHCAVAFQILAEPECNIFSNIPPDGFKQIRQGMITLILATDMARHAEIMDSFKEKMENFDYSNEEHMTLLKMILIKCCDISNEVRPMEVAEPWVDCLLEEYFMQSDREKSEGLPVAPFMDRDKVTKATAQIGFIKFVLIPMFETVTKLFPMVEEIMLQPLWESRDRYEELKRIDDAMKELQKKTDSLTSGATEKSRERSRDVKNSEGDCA

In data set [1], `C[C@@H]1CN(Cc2ncccn2)C[C@H]1c1cn2c(C3CCOCC3)ncc2c(=O)[nH]1` (single isomer, unassigned) [Compound (P3, enantiomer 1)] registered an IC50 of 49 nM. The “Brain concentration after 120 minutes” value in data set [2] was 120 mm.: 7 ng/mL.
`O=c1[nH]c(CN2CC(Oc3cccnc3)C2)cn2c(C3CCOCC3)ncc12` [Compound (P2), 6-[3-(pyridin-3-yloxy)-azetidin-1-ylmethyl]-3-(tetrahydropyran-4-yl)-7H-imidazo[1,5-a]pyrazin-8-one]: in data set [2] (30 min), the “Brain concentration after 30 minutes” value was “Below detection”. In addition, in data set [2], the “Brain concentration after 120 minutes” value is on record as “Below detection”.

What is called IC50 is the concentration that gives 50% inhibition. High values mean a need for much substance, low ones inhibition by little substance.
